This note sets out measurements from patent US20130252930A1 (BIOMARIN PHARMACEUTICAL INC., priority 2010, published 2013).

The target in assay [1] is T1, CYP17 (human testicular microsome) (Homo sapiens, UniProt P05093).
T1 construct: using microsomal fraction from human testis (Celsis Cat #S00110) as the enzyme source; tissue Celsis S00110; host or cells: human testis microsomal fraction
T1 sequence (P05093 1-508): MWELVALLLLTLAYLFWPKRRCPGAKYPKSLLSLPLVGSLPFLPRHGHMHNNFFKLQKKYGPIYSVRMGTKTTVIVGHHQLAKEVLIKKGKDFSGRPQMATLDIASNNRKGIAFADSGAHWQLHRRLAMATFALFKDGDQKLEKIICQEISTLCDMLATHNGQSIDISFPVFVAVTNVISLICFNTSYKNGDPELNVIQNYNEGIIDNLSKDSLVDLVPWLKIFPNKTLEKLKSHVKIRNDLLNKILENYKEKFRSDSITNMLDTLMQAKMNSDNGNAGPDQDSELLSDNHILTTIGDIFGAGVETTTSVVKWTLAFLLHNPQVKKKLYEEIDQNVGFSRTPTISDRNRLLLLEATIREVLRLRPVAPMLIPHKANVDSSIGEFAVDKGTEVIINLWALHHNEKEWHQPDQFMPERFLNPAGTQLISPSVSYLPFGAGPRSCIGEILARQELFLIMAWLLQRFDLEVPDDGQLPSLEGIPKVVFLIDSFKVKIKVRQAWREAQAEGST
The experiment in a line: CYP17 enzymatic assay (% inhibition at 1 nM) (Biological Example 12). As to conditions: compound at 1 nM, read-out: Biological Example No. 12: CYP17 enzymatic assay % inhibition at 1 nM. It is filed as biochemical.

In assay [2] the target is T2, Cyp21 enzyme (Human HEK 293-Cyp21 stable transfected cells) (Homo sapiens, UniProt P08686).
T2 construct: expressed in transfected cells
T2 sequence (P08686 1-495): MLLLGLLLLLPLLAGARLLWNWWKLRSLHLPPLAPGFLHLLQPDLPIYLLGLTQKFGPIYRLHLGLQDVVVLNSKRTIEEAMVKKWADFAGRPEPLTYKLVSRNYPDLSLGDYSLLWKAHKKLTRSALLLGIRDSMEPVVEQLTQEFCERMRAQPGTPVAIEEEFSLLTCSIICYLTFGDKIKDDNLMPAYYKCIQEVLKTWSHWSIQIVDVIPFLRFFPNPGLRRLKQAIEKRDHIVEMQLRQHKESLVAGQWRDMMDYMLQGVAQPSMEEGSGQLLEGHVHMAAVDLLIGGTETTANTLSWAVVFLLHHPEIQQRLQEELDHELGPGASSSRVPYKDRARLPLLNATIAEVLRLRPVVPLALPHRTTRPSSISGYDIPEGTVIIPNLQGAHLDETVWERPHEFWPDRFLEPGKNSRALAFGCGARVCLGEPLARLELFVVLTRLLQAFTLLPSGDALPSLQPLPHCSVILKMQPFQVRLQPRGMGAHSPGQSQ
The experiment in a line: CYP21-HEK293 enzymatic assay (IC50) (Biological Example 11). As to conditions: HEK 293-Cyp21 cells; read-out: Biological Example No. 11: CYP21-HEK293 enzymatic assay IC50. The class given is cell-based.

Assay [3] has as its target T1, CYP17 (human testicular microsome). Briefly: CYP17 enzymatic assay (IC50) (Biological Example 4). To be noted: human testicular microsome; read-out: Biological Example No. 4: CYP17 enzymatic assay IC50. The class given is biochemical.

A value given as a limit tells only on which side of the number the result lay.

For the molecule `C[C@]12CCC(=O)C=C1C(C1CC1)C[C@@H]1[C@@H]2CC[C@]2(C)C(c3cccnc3)=CC[C@@H]12` (stereo partly drawn) [Compound 339, (10R,13S)-6-cyclopropyl-10,13-dimethyl-17-(pyridin-3-yl)-6,7,8,9,10,11,12,13,14,15-decahydro-1H-cyclopenta[a]phenanthren-3(2H)-one], the inhibition at 0.001 µM in assay [1] is under 10%. Also, the IC50 in assay [2] was over 1000 nM.
`C[C@]12CC[C@H]3[C@@H](CC(CO)C4=CC(=O)CC[C@@]43C)C1=CC=C2c1cccnc1` (stereo partly drawn) [Compound 340, (10R,13S)-6-(hydroxymethyl)-10,13-dimethyl-17-(pyridin-3-yl)-6,7,8,9,10,11,12,13-octahydro-1H-cyclopenta[a]phenanthren-3(2H)-one]: the inhibition at 0.001 µM in assay [1] is over 50%. In addition, the IC50 in assay [3] is under 11 nM; in assay [2], over 100 nM.
Consider `CC1CC2C(CC[C@]3(C)C(c4cncc(C(F)F)c4)=CCC23)[C@@]2(C)CCC(=O)C=C12` (stereo partly drawn) [Compound 341, (10R,13S)-17-(5-(difluoromethyl)pyridin-3-yl)-6,10,13-trimethyl-6,7,8,9,10,11,12,13,14,15-decahydro-1H-cyclopenta[a]phenanthren-3(2H)-one], for which the inhibition at 0.001 µM in assay [1] was 10 to 50%. Besides, the IC50 in assay [2] was over 1000 nM.
`C[C@]12CC[C@H]3[C@@H](CC(C4CC4)C4=CC(=O)CC[C@@]43C)C1=CC=C2c1cccnc1` (stereo partly drawn) [Compound 343, (10R,13S)-6-cyclopropyl-10,13-dimethyl-17-(pyridin-3-yl)-6,7,8,9,10,11,12,13-octahydro-1H-cyclopenta[a]phenanthren-3(2H)-one]: the inhibition at 0.001 µM in assay [1] was in the range of 10 to 50%. Further, the IC50 in assay [2] was over 100 nM.
With `C[C@]12CC[C@H]3[C@@H](CC(c4ccccc4)C4=CC(=O)CC[C@@]43C)C1=CC=C2c1cccnc1` (stereo partly drawn) [Compound 344, (10R,13S)-10,13-dimethyl-6-phenyl-17-(pyridin-3-yl)-6,7,8,9,10,11,12,13-octahydro-1H-cyclopenta[a]phenanthren-3(2H)-one], the inhibition at 0.001 µM in assay [1] fell in the range of 10 to 50%. Moreover, the IC50 in assay [2] was over 1000 nM.
`CC1C[C@@H]2[C@H](CC[C@]3(C)C(c4cncc(F)c4)=CC[C@@H]23)[C@@]2(C)C=CC(=O)C=C12` (stereo partly drawn) [Compound 345, (10R,13S)-17-(5-fluoropyridin-3-yl)-6,10,13-trimethyl-6,7,8,9,10,11,12,13,14,15-decahydro-3H-cyclopenta[a]phenanthren-3-one]: the inhibition at 0.001 µM in assay [1] was over 50%. The results for the IC50 in assay [3] and in assay [2] were under 11 nM and 10 to 100 nM, respectively.
As to `CC1C[C@@H]2[C@H](CC[C@]3(C)C(c4cncc(C(F)F)c4)=CC[C@@H]23)[C@@]2(C)C=CC(=O)C=C12` (stereo partly drawn) [Compound 346, (10R,13S)-17-(5-(difluoromethyl)pyridin-3-yl)-6,10,13-trimethyl-6,7,8,9,10,11,12,13,14,15-decahydro-3H-cyclopenta[a]phenanthren-3-one], the inhibition at 0.001 µM in assay [1] fell in the range of 10 to 50%. For the same molecule, in assay [2], the IC50 was over 1000 nM.
For `C[C@]12CCC3C(CCC4=CC(=O)CC[C@@]43C)C1=CC=C2c1ccc(F)nc1` (stereo partly drawn) [Compound 355, (10R,13S)-17-(6-fluoropyridin-3-yl)-10,13-dimethyl-6,7,8,9,10,11,12,13-octahydro-1H-cyclopenta[a]phenanthren-3(2H)-one] the same measures were 10 to 50% and over 1000 nM.
Take `Cc1cnc(F)c(C2=CCC3C4CCC5=CC(=O)CC[C@]5(C)C4CC[C@]23C)c1` (stereo partly drawn) [Compound 356, (10R,13S)-17-(2-fluoro-5-methylpyridin-3-yl)-10,13-dimethyl-6,7,8,9,10,11,12,13,14,15-decahydro-1H-cyclopenta[a]phenanthren-3(2H)-one]: in assay [1], the inhibition at 0.001 µM lay within 10 to 50%. Further, in assay [2], the IC50 was over 1000 nM.
With `C[C@]12CCC3C(CCC4=CC(=O)CC[C@@]43C)C1=CC=C2c1cncc(Cl)c1` (stereo partly drawn) [Compound 359, (10R,13S)-17-(5-chloropyridin-3-yl)-10,13-dimethyl-6,7,8,9,10,11,12,13-octahydro-1H-cyclopenta[a]phenanthren-3(2H)-one], the inhibition at 0.001 µM in assay [1] fell in the range of 10 to 50%. In assay [2], the IC50 was over 1000 nM.
Consider `C[C@]12CCC(=NO)C=C1C1(CC1)C[C@@H]1[C@@H]2CC[C@]2(C)C(c3cccnc3)=CC[C@@H]12` [Compound 362, (6cR,8aS)-10,13-dimethyl-17-(pyridin-3-yl)-1,7,8,9,10,11,12,13,14,15-decahydrospiro[cyclopenta[a]phenanthrene-6,1′-cyclopropan]-3(2H)-one oxime], for which, in assay [1], the inhibition at 0.001 µM lay in the range of 10 to 50%. Besides, in assay [2], the IC50 was over 100 nM.
Take `CC1(C)C2=CCC3C(CC[C@]4(C)C(c5cccnc5)=CCC34)[C@@]2(C)CC/C1=N\O` (stereo partly drawn) [Compound 363, (10R,13S,E)-4,4,10,13-tetramethyl-17-(pyridin-3-yl)-4,7,8,9,10,11,12,13,14,15-decahydro-1H-cyclopenta[a]phenanthren-3(2H)-one oxime]: the inhibition at 0.001 µM in assay [1] is under 10%. In addition, the IC50 in assay [2] was over 1000 nM.
The like results for `C[C@]12C=CC(=NO)C=C1C1(CC1)C[C@@H]1[C@@H]2CC[C@]2(C)C(c3cccnc3)=CC[C@@H]12` [Compound 365, (6cR,8aS)-10,13-dimethyl-17-(pyridin-3-yl)-7,8,9,11,12,13,14,15-octahydrospiro[cyclopenta[a]phenanthrene-6,1′-cyclopropan]-3(10H)-one oxime] were, in that order, 10 to 50% and over 100 nM.
For `C[C@]12CCC(=NO)C=C1C(F)CC1C2CC[C@]2(C)C(c3cccnc3)=CCC12` (stereo partly drawn) [Compound 366, (10R,13S)-6-fluoro-10,13-dimethyl-17-(pyridin-3-yl)-6,7,8,9,10,11,12,13,14,15-decahydro-1H-cyclopenta[a]phenanthren-3(2H)-one oxime], the inhibition at 0.001 µM in assay [1] lay within 10 to 50%. Further, the IC50 in assay [2] is over 1000 nM.
As for `CC1CC2C(CC[C@]3(C)C(c4cccnc4)=CCC23)[C@@]2(C)C=CC(=NO)C=C12` (stereo partly drawn) [Compound 367, (10R,13S)-6,10,13-trimethyl-17-(pyridin-3-yl)-6,7,8,9,10,11,12,13,14,15-decahydro-3H-cyclopenta[a]phenanthren-3-one oxime], the inhibition at 0.001 µM in assay [1] was in the range of 10 to 50%. Further, in assay [2], the IC50 is over 1000 nM.
For `CC1CC2C3=CC=C(c4ccc(F)nc4)[C@@]3(C)CCC2[C@@]2(C)CCNC(=O)C=C12` (stereo partly drawn) [Compound 385, (5aR,7aS)-8-(6-fluoropyridin-3-yl)-5a,7a,12-trimethyl-3,4,5,5a,5b,6,7,7a,11,12-decahydrocyclopenta[5,6]naphtho[1,2-d]azepin-2(10bH)-one], the inhibition at 0.001 µM in assay [1] was 10 to 50%. Further, the IC50 in assay [2] was over 1000 nM.
With `C[C@]12CCC3C(CCC45CC4NC(=O)CC[C@]35C)C1CC=C2c1cccnc1` (stereo partly drawn) [Compound 387, (5aR,7aS)-5a,7a-dimethyl-8-(pyridin-3-yl)-1a,2,4,5,5a,5b,6,7,7a,10,10a,10b,11,12-tetradecahydrocyclopenta[5,6]naphtho[2,1-c]cyclopropa[b]azepin-3(1H)-one], the inhibition at 0.001 µM in assay [1] is under 10%. Further, the IC50 in assay [2] is over 1000 nM.
`CC1CC2C3=CC=C(c4cncc(C(F)F)c4)[C@@]3(C)CCC2[C@@]2(C)CCNC(=O)C=C12` (stereo partly drawn) [Compound 391, (5aR,7aS)-8-(5-(difluoromethyl)pyridin-3-yl)-5a,7a,12-trimethyl-3,4,5,5a,5b,6,7,7a,11,12-decahydrocyclopenta[5,6]naphtho[1,2-d]azepin-2(10bH)-one]: the inhibition at 0.001 µM in assay [1] was under 10%. In addition, the IC50 in assay [2] is over 1000 nM.
For the molecule `C[C@]12CCC(=O)C=C1CCC1C2CC[C@]2(C)C(c3cncc(C(F)F)c3)=CCC12` (stereo partly drawn) [Compound 479, (10R,13S)-17-(5-(difluoromethyl)pyridin-3-yl)-10,13-dimethyl-6,7,8,9,10,11,12,13,14,15-decahydro-1H-cyclopenta[a]phenanthren-3(2H)-one], the inhibition at 0.001 µM in assay [1] was in the range of 10 to 50%. For the same molecule, in assay [2], the IC50 is over 1000 nM.

For orientation: inhibition means the relative decrease from the control value, in per cent. A word on the IC50: it is the concentration that gives 50% inhibition.
